From patent US9708267B2, “Activators of human pyruvate kinase” (The United States of America, as represented by the …, priority 2010, dated 2017)
Where two headings read alike, the source gives them in different places. Each block holds one molecule with its values, some of them ahead of it.

Target: hPK, M2 (Homo sapiens, UniProt P14618)
Assay: luminescent pyruvate kinase-luciferase coupled assay (qHTS)
Assay type: biochemical
Conditions: for activation at 57 µM: % activation at 57 μM of compound, read-out: hPK, M2 Max. Res.; for Emax: read-out: Max. Res.
Protocol: AC50 values were determined utilizing the luminescent pyruvate kinase-luciferase coupled assay (Inglese, J. et al, Quantitative high-throughput screening: a titration-based approach that efficiently identifies biological activities in large chemical libraries. Proc. Natl. Acad. Sci. U.S.A. 2006, 103, 11473-11478).
Luminescent Pyruvate Kinase-Luciferase Coupled Assay.
Production of a luminescent signal based on the generation of ATP by pyruvate kinase was determined by using the ATP-dependent enzyme firefly luciferase. Three μL of substrate mix (at r.t.) in assay buffer (50 mM imidazole pH 7.2, 50 mM KCl, 7 mM MgCl2, 0.01% tween 20, 0.05% BSA) was dispensed into Kalypsys (San Diego, Calif., USA) white solid bottom 1,536 well microtiter plates using a bottle-valve solenoid-based dispenser (Kalypsys). The final concentrations of substrates in the assay were 0.1 mM ADP and 0.5 mM PEP. Twenty-three nL of compound in DMSO were delivered with a 1,536-pin array tool, and 1 μL of enzyme mix in assay buffer (final concentration, 0.1 nM pyruvate kinase, 50 mM imidazole pH 7.2, 0.05% BSA, 4° C.) was added. Microtiter plates were incubated at r.t. for 1 hour and 2 uL of luciferase detection mix (Kinase-Glo from Promega, Madison, Wis., USA) at 4° C. protected from light, was added and luminescence was read with a ViewLux (Perkin Elmer, Waltham, Mass., USA) using a 2 second exposure/plate (with 2× binning). The final concentration of DMSO was 0.5% and found not to affect the assay signal.
Data was normalized for AC50 values to control columns containing uninhibited enzyme (n), and AC100 inhibition (i) according the following equation: Activation (%)=[(c−n)/(n−i)]*100 where c=compound, n=DMSO neutral, i=no enzyme control. A % activity of 100% is approximately a 2-fold increase over basal assay signal (% Activation by FBP was variable but averaged 100%). Monitoring of activation was accomplished using enzyme at 3× the final concentration.
All compounds were screened using a qHTS approach, where compounds are assayed using at least seven concentrations to generate concentration-response curves for every compounds. Briefly, qHTS uses an inter-plate dilution method where the first plate contains the highest concentration of a set of compounds in DMSO, while subsequent plates contain the same compounds in the same well locations, but at successive lower concentrations. Using the protocol outlined above, the rate was calculated as a plate throughput of 18 plates/hr or approximately 7 samples/sec on the Kalypsys robotic system which means that a 7 point CRC was obtained every second on the robotic system.

[1] = Table 3, 0.1 mM ADP, 0.5 mM PEP, mean of three replicate experiments, read-out: hPK, M2 AC50
[2] = Table 3, mean of three replicate experiments
[3] = Table 1, 0.1 mM ADP, 0.5 mM PEP, mean of three replicate experiments, read-out: hPK, M2 AC50
[4] = Table 1, mean of three replicate experiments
[5] = Table 2, 0.1 mM ADP, 0.5 mM PEP, mean of three replicate experiments, read-out: hPK, M2 AC50
[6] = Table 2, mean of three replicate experiments
[7] = Table 4, 0.1 mM ADP, 0.5 mM PEP, read-out: AC50
[8] = Table 4, maximum response (activation)

Chain of hPK, M2 (P14618 whole entry): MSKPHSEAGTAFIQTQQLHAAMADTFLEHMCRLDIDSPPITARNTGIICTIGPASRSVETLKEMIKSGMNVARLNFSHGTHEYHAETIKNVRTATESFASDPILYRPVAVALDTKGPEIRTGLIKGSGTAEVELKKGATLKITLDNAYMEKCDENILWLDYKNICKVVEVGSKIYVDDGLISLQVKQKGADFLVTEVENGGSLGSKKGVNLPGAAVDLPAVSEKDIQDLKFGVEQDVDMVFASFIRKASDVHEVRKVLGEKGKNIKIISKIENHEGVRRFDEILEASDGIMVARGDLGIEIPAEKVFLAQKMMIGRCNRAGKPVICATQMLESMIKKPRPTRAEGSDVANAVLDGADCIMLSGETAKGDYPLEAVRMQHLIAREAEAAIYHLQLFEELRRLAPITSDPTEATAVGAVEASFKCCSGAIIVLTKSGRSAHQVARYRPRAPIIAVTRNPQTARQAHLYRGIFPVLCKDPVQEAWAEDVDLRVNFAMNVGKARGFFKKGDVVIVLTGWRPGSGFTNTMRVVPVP

AC50 [1]: 15 µM | activation at 57 µM [2]: 57%
SMILES: Cc1ccc(NS(=O)(=O)c2cc3c(cc2N2CCCCC2)NC(=O)CC3)cc1C [Compound 34, N-(3,4-dimethylphenyl)-2-oxo-7-(piperidin-1-yl)-1,2,3,4-tetrahydroquinoline-6-sulfonamide]

AC50 [1]: 18 µM | activation at 57 µM [2]: 103%
SMILES: Cc1ccc(NS(=O)(=O)c2cc3c(cc2Br)NC(=O)CO3)cc1C [Compound 38, 6-bromo-N-(3,4-dimethylphenyl)-3-oxo-3,4-dihydro-2H-benzo[b][1,4]oxazine-7-sulfonamide]

AC50 [3]: 20 µM | activation at 57 µM [4]: 40%
SMILES: Cc1ccc(NS(=O)(=O)c2ccc3c(ccn3C)c2)cc1C [Compound 12, N-(3,4-dimethylphenyl)-1-methyl-1H-indole-5-sulfonamide]

AC50 [5]: 1.2 µM | activation at 57 µM [6]: 99%
SMILES: Cc1cccc(NS(=O)(=O)c2ccc3c(c2)CCC(=O)N3)c1 [Compound 14, 2-oxo-N-m-tolyl-1,2,3,4-tetrahydroquinoline-6-sulfonamide]

AC50 [7]: 4.61 µM | Emax [8]: 94.6%
SMILES: Cc1ccc(Cl)cc1NS(=O)(=O)c1cc2c(cc1F)NC(=O)CC2 [Compound 48, N-(5-chloro-2-methylphenyl)-7-fluoro-2-oxo-1,2,3,4-tetrahydroquinoline-6-sulfonamide]

AC50 [3]: 1.8 µM | activation at 57 µM [4]: 65%
SMILES: CC(=O)N1CCc2cc(S(=O)(=O)Nc3ccc(C)c(C)c3)ccc21 [Compound 11, 1-acetyl-N-(3,4-dimethylphenyl)indoline-5-sulfonamide]

AC50 [7]: 9.19 µM | Emax [8]: 97%
SMILES: N#Cc1cccc(NS(=O)(=O)c2ccc3c(c2)CCC(=O)N3)c1 [Compound 46, N-(3-cyanophenyl)-2-oxo-1,2,3,4-tetrahydroquinoline-6-sulfonamide]

AC50 [7]: 0.27 µM | Emax [8]: 99%
SMILES: Cc1cc(NS(=O)(=O)c2cc3c(cc2N[C@@H](C)CO)NC(=O)CC3)ccc1F [Compound 72, (S)—N-(4-fluoro-3-methylphenyl)-7-(1-hydroxypropan-2-ylamino)-2-oxo-1,2,3,4-tetrahydroquinoline-6-sulfonamide]

AC50 [5]: 3.9 µM | activation at 57 µM [6]: 96%
SMILES: Cc1ccccc1NS(=O)(=O)c1ccc2c(c1)CCC(=O)N2 [Compound 24, 2-oxo-N-o-tolyl-1,2,3,4-tetrahydroquinoline-6-sulfonamide]

AC50 [5]: 10 µM | activation at 57 µM [6]: 101%
SMILES: O=C1CCc2cc(S(=O)(=O)Nc3cccc4ccccc34)ccc2N1 [Compound 28, N-(naphthalen-1-yl)-2-oxo-1,2,3,4-tetrahydroquinoline-6-sulfonamide]

AC50 [7]: 1.16 µM | Emax [8]: 109%
SMILES: Cc1c(Cl)cccc1NS(=O)(=O)c1cc2c(cc1Cl)CCC(=O)N2 [Compound 59, 6-chloro-N-(3-chloro-2-methylphenyl)-2-oxo-1,2,3,4-tetrahydroquinoline-7-sulfonamide]

AC50 [5]: 7.3 µM | activation at 57 µM [6]: 85%
SMILES: O=C1CCc2cc(S(=O)(=O)Nc3ccccc3F)ccc2N1 [Compound 26, N-(2-fluorophenyl)-2-oxo-1,2,3,4-tetrahydroquinoline-6-sulfonamide]

AC50 [3]: 0.92 µM | activation at 57 µM [4]: 120%
SMILES: Cc1ccc(NS(=O)(=O)c2ccc3c(c2)N(C)C(=O)CO3)cc1C [Compound 8, N-(3,4-dimethylphenyl)-4-methyl-3-oxo-3,4-dihydro-2H-benzo[b][1,4]oxazine-6-sulfonamide]

AC50 [5]: 36 µM | activation at 57 µM [6]: 47%
SMILES: COc1ccc(NS(=O)(=O)c2ccc3c(c2)CCC(=O)N3)cc1 [Compound 22, N-(4-methoxyphenyl)-2-oxo-1,2,3,4-tetrahydroquinoline-6-sulfonamide]

AC50 [5]: 14 µM | activation at 57 µM [6]: 13%
SMILES: O=C1CCc2cc(S(=O)(=O)Nc3cccc(-c4ccccc4)c3)ccc2N1 [Compound 18, N-(biphenyl-3-yl)-2-oxo-1,2,3,4-tetrahydroquinoline-6-sulfonamide]

AC50 [7]: 0.82 µM | Emax [8]: 99.3%
SMILES: O=C1CCc2cc(S(=O)(=O)Nc3cccc(B(O)O)c3)ccc2N1 [Compound 52, 3-(2-oxo-1,2,3,4-tetrahydroquinoline-6-sulfonamido)phenylboronic acid]

AC50 [7]: 0.37 µM | Emax [8]: 87.7%
SMILES: Cc1ccc(NS(=O)(=O)c2cc3c(cc2N[C@H](C)CO)NC(=O)CC3)cc1C [Compound 69, (R)—N-(3,4-dimethylphenyl)-7-(1-hydroxypropan-2-ylamino)-2-oxo-1,2,3,4-tetrahydroquinoline-6-sulfonamide]

AC50 [7]: 1.83 µM | Emax [8]: 100%
SMILES: Cc1ccc(NS(=O)(=O)c2cc3c(cc2NCC(C)(C)O)NC(=O)CC3)cc1C [Compound 64, N-(3,4-dimethylphenyl)-7-(2-hydroxy-2-methylpropylamino)-2-oxo-1,2,3,4-tetrahydroquinoline-6-sulfonamide]

Max. Res. [8]: 36.00 | AC50 (linkage variants of compound 4, read-out: AC50): 23.1 µM | Emax (linkage variants of compound 4): 36%
SMILES: Cc1ccc(N(C)S(=O)(=O)c2ccc3c(c2)CCC(=O)N3)cc1C [Compound 41, N-(3,4-dimethylphenyl)-N-methyl-2-oxo-1,2,3,4-tetrahydroquinoline-6-sulfonamide]

AC50 [1]: 1.2 µM | activation at 57 µM [2]: 106%
SMILES: Cc1ccc(NS(=O)(=O)c2cc3c(cc2C)NC(=O)CO3)cc1C [Compound 39, N-(3,4-dimethylphenyl)-6-methyl-3-oxo-3,4-dihydro-2H-benzo[b][1,4]oxazine-7-sulfonamide]

AC50 [7]: 10.3 µM | Emax [8]: 117%
SMILES: Cc1ccc(NS(=O)(=O)c2ccc3c(c2)C(Cl)(Cl)C(=O)N3)cc1C [Compound 60, 3,3-dichloro-N-(3,4-dimethylphenyl)-2-oxoindoline-5-sulfonamide]

AC50 [3]: 20 µM | activation at 57 µM [4]: 93%
SMILES: Cc1ccc(NS(=O)(=O)c2ccc3c(c2)NC(=O)CO3)cc1C [Compound 7, N-(3,4-dimethylphenyl)-3-oxo-3,4-dihydro-2H-benzo[b][1,4]oxazine-6-sulfonamide]

AC50 [3]: 21 µM | activation at 57 µM [4]: 59%
SMILES: Cc1ccc(NS(=O)(=O)c2ccc3[nH]c(=O)[nH]c3c2)cc1C [Compound 9, N-(3,4-dimethylphenyl)-2-oxo-2,3-dihydro-1H-benzo[d]imidazole-5-sulfonamide]

AC50 [7]: 0.65 µM | Emax [8]: 112%
SMILES: Cc1ccc(NS(=O)(=O)c2cc3c(cc2Cl)CCC(=O)N3)cc1Cl [Compound 49, 6-chloro-N-(3-chloro-4-methylphenyl)-2-oxo-1,2,3,4-tetrahydroquinoline-7-sulfonamide]

AC50 [7]: 0.26 µM | Emax [8]: 122%
SMILES: Cc1ccc(NS(=O)(=O)c2ccc3c(c2)CCC(=O)N3)cc1Cl [Compound 43, N-(3-chloro-4-methylphenyl)-2-oxo-1,2,3,4-tetrahydroquinoline-6-sulfonamide]

AC50 [5]: 0.65 µM | activation at 57 µM [6]: 100%
SMILES: O=C1CCc2cc(S(=O)(=O)Nc3cccc(Cl)c3)ccc2N1 [Compound 13, N-(3-chlorophenyl)-2-oxo-1,2,3,4-tetrahydroquinoline-6-sulfonamide]

AC50 [1]: 20.6 µM | activation at 57 µM [2]: 36%
SMILES: Cc1ccc(NS(=O)(=O)c2cc3c(cc2-c2ccccc2)NC(=O)CO3)cc1C [Compound 40, N-(3,4-dimethylphenyl)-3-oxo-6-phenyl-3,4-dihydro-2H-benzo[b][1,4]oxazine-7-sulfonamide]

AC50 [7]: 0.08 µM | Emax [8]: 124%
SMILES: Cc1ccc(NS(=O)(=O)c2cc3c(cc2N[C@@H](C)CO)NC(=O)CC3)cc1Cl [Compound 71, (S)—N-(3-chloro-4-methylphenyl)-7-(l-hydroxypropan-2-ylamino)-2-oxo-1,2,3,4-tetrahydroquinoline-6-sulfonamide]

AC50 [7]: 8.19 µM | Emax [8]: 102%
SMILES: Cc1ccc(NS(=O)(=O)c2cc3c(cc2N2CCC(N(C)C)C2)NC(=O)CC3)cc1C (centres unmarked) [Compound 63, 7-(3-(dimethylamino)pyrrolidin-1-yl)-N-(3,4-dimethylphenyl)-2-oxo-1,2,3,4-tetrahydroquinoline-6-sulfonamide]
